The results in this text go back to patent US10799501B2, “Combination of an inhibitor of PARP with an inhibitor of GSK-3 or DOT1L” (King's College London, priority 2015, dated 2020).

One test deals with Kasumi (AML1-ETO). As to the kind of experiment: In vitro PARPi treatment of human leukemic cell line Kasumi. In kind it is cell-based. The method, then: NB4-LR2 and THP1 cell lines (kindly provided by Dr Arthur Zelent and Professor Mel Greaves respectively) were cultured in RPMI (Invitrogen) supplemented with 10% selected FBS (R10), 2 mM L-Glutamine. Kasumi cell line (kindly provided by Dr Olaf Heidenreich) was cultured in RPMI-Hepes modified (Sigma) supplemented with 20% selected FBS and 2 mM L-[…]). Cell lines were validated by qPCR for their respective oncogenes. NIH3T3 and GP2 cell line was cultured in DMEM (Invitrogen) supplemented with 10% selected FBS and 2 mM L-Glutamine. Human primary AML cells were cultured in IMEM (Invitrogen) supplemented with […], 2 mM L-Glutamine, 10 ng/mL each of human cytokines, IL3, IL6, SCF, FLT3 ligand, and TPO. Cells were kept at 37° C. and 5% CO2. Use of human primary cells was approved by King's College London committee and consents of the patients were obtained. […] Colonies were scored 6-7 days after plating. […] Samples were then washed in PBS analysed at the FACS LSRII (BD Biosciences Pharmingen) with FACS Diva. […] Cells were counted in at least 5 fields for each slide, for a total of over 100 cells. The percentage of senescent cells was calculated by the percentage of the number of blue cell in the field.

The next test has as its system THP1 (MLL-AF9). As to the kind of experiment: In vitro drug treatment of human leukemic cell line THP1. It is filed as cell-based. The method, then:
NB4-LR2 and THP1 cell lines (kindly provided by Dr Arthur Zelent and Professor Mel Greaves respectively) were cultured in RPMI (Invitrogen) supplemented with 10% selected FBS (R10), 2 mM L-Glutamine. Kasumi cell line (kindly provided by Dr Olaf Heidenreich) was cultured in RPMI-Hepes modified (Sigma) supplemented with 20% selected FBS and 2 mM L-[…]). Cell lines were validated by qPCR for their respective oncogenes. NIH3T3 and GP2 cell line was cultured in DMEM (Invitrogen) supplemented with 10% selected FBS and 2 mM L-Glutamine. Human primary AML cells were cultured in IMEM (Invitrogen) supplemented with […], 2 mM L-Glutamine, 10 ng/mL each of human cytokines, IL3, IL6, SCF, FLT3 ligand, and TPO. Cells were kept at 37° C. and 5% CO2. Use of human primary cells was approved by King's College London committee and consents of the patients were obtained. […] Colonies were scored 6-7 days after plating. For other in vitro studies, mouse leukemic cells and primary AML cell lines were subjected to continuously Olaparib (1 μM) or LiCl (8 mM) treatment in liquid culture for whole duration as indicated in the figures or figure legends. For human leukemic cell lines, experiments were performed as described above with 5 μM Olaparib. For each assay 1×10^5 cells were collected, washed in PBS and re-suspended in Annexin V binding solution (25 mM Hepes, 140 mM KCl, 2.5 mM CaCl2 pH 7.2). After centrifugation at 500 g for five minutes the cells were incubated with the Annexin V Binding solution containing 0.25 ug/ml mouse anti Annexin V-FITC antibody (Biolegend 640906) and 1 ug/ml propidium iodide in the dark for 30 minutes at 4° C. Samples were then washed in PBS analysed at the FACS LSRII (BD Biosciences Pharmingen) with FACS Diva. Cells were cytospun onto a glass slide at 400 g for 5 minutes and then fixed for 10 minutes with 2% formaldehyde/0.2% glutaraldehyde (Sigma Aldrich). […] Cells were counted in at least 5 fields for each slide, for a total of over 100 cells. The percentage of senescent cells was calculated by the percentage of the number of blue cell in the field.

Where [1] appears, read: methylcellulose 7 days, 5 μM Olaparib.

`O=C(c1cc(Cc2n[nH]c(=O)c3ccccc23)ccc1F)N1CCN(C(=O)C2CC2)CC1` [Olaparib, 4-[(3-[(4-cyclopropylcarbonyl)piperazin-4-yl]carbonyl)-4-fluorophenyl]methyl(2H)-phthalazin-1-one]: the senescence and apoptosis result in the test with Kasumi (AML1-ETO) (PARPi 72 hrs / 4 days) was “effectively induce senescence and apoptosis”. For the same compound, the colony forming ability result was “reduced the colony forming ability” in the test on Kasumi (AML1-ETO) (setting [1]) and “did not affect” in the test on THP1 (MLL-AF9) (setting [1]). In the test with THP1 (MLL-AF9) (counted on day 5 by trypan blue exclusion), the “growth (relative proliferation) and differentiation” value is listed as “ineffective”.
